Measurements from patent US9695155B2, “Herbicidal substituted pyrimidinyloxy benzene compounds” (E. I. DU PONT DE NEMOURS AND COMPANY, priority 2013, dated 2017).

How the values were obtained:
pigweed [1] = experiment: Test A preemergence; format: in vivo, Amaranthus retroflexus; details: Amaranthus retroflexus, pre-emergence, 0 to 100 scale where 0 is no effect and 100 is complete control; for pest or weed control at 125 g/ha: 125 g ai/ha
Procedure, shortened: (§1)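 Injury scores run from 0, no effect, to 100, complete control, judged by eye against untreated plants roughly 10 days after treatment. Chemicals carried a surfactant in a non-phytotoxic solvent and went onto loam–sand soil preemergence or onto one- to two-leaf seedlings postemergence.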

ragweed = experiment: Test C postemergence; format: in vivo, Ambrosia elatior; details: for pest or weed control at 16 g/ha / pest or weed control at 125 g/ha / pest or weed control at 62 g/ha: Ambrosia artemisiifolia, post-emergence; for pest or weed control at 16 g/ha: 16 g ai/ha, 0 is no effect, 100 is complete control, read-out: Plant response rating (0 to 100), Ragweed; for pest or weed control at 125 g/ha: 125 g ai/ha; for pest or weed control at 125 g/ha / pest or weed control at 62 g/ha: read-out: Plant response rating, Ragweed; for pest or weed control at 62 g/ha: Postemergence, 62 g ai/ha
Procedure, shortened: (§2)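 Sown in loam/sand → sprayed pre-emergence; or grown to 1–4 leaves in peat mix → sprayed post-emergence. Same solvent/surfactant formulation both ways. Greenhouse 13–15 d. Score 0–100 visual.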

giant foxtail [2] = experiment: Test A preemergence; format: in vivo, Setaria faberii; details: Setaria faberi, pre-emergence, 240 h, 0 to 100 scale where 0 is no effect and 100 is complete control; for pest or weed control at 125 g/ha: 125 g ai/ha
Procedure, shortened: as §1

pigweed [3] = experiment: Test A postemergence; format: in vivo, Amaranthus retroflexus; details: Amaranthus retroflexus, post-emergence; for pest or weed control at 125 g/ha: 240 h, 125 g ai/ha, read-out: Pigweed plant response rating
Procedure, shortened: as §1

chickweed = experiment: Test C postemergence; format: in vivo, Stellaria media; details: Stellaria media, post-emergence; for pest or weed control at 16 g/ha: 16 g ai/ha, 0 is no effect, 100 is complete control, read-out: Plant response rating (0 to 100), Chickweed; for pest or weed control at 125 g/ha: 125 g ai/ha; for pest or weed control at 125 g/ha / pest or weed control at 62 g/ha: read-out: Plant response rating, Chickweed; for pest or weed control at 62 g/ha: Postemergence, 62 g ai/ha
Procedure, shortened: as §2

wheat, winter = experiment: Test C postemergence; format: in vivo, Triticum aestivum; details: for plant injury at 16 g/ha / plant injury at 125 g/ha / plant injury at 62 g/ha: Triticum aestivum, post-emergence; for plant injury at 16 g/ha: 16 g ai/ha, 0 is no effect, 100 is complete control, read-out: Plant response rating (0 to 100), Wheat; for plant injury at 125 g/ha: 125 g ai/ha; for plant injury at 125 g/ha / plant injury at 62 g/ha: read-out: Plant response rating, Wheat; for plant injury at 62 g/ha: Postemergence, 62 g ai/ha
Procedure, shortened: as §2

soybean = experiment: Test C postemergence; format: in vivo, Glycine max; details: for Soybean plant response rating (crop injury, 0-100 scale) at 16 g/ha / Soybean plant response rating (crop injury, 0-100 scale) at 125 g/ha / Soybean plant response rating (crop injury, 0-100 scale) at 62 g/ha: Glycine max, post-emergence; for Soybean plant response rating (crop injury, 0-100 scale) at 16 g/ha: 16 g ai/ha, 0 is no effect, 100 is complete control; for Soybean plant response rating (crop injury, 0-100 scale) at 125 g/ha: 125 g ai/ha, read-out: Plant response rating, Soybean; for Soybean plant response rating (crop injury, 0-100 scale) at 62 g/ha: Postemergence, 62 g ai/ha
Procedure, shortened: as §2

giant foxtail [4] = experiment: Test A postemergence; format: in vivo, Setaria faberii; details: Setaria faberi, post-emergence, 240 h; for pest or weed control at 125 g/ha: 125 g ai/ha, read-out: Foxtail, Giant plant response rating
Procedure, shortened: as §1

velvetleaf = experiment: Test C postemergence; format: in vivo, Abutilon theophrasti; details: for pest or weed control at 16 g/ha / pest or weed control at 125 g/ha / pest or weed control at 62 g/ha: Abutilon theophrasti, post-emergence; for pest or weed control at 16 g/ha: 16 g ai/ha, 0 is no effect, 100 is complete control, read-out: Plant response rating (0 to 100), Velvetleaf; for pest or weed control at 125 g/ha: 125 g ai/ha; for pest or weed control at 125 g/ha / pest or weed control at 62 g/ha: read-out: Plant response rating, Velvetleaf; for pest or weed control at 62 g/ha: Postemergence, 62 g ai/ha
Procedure, shortened: as §2

giant foxtail [5] = experiment: Test C postemergence; format: in vivo, Setaria faberii; details: Setaria faberi, post-emergence; for pest or weed control at 16 g/ha: 16 g ai/ha, 0 is no effect, 100 is complete control, read-out: Plant response rating (0 to 100), Foxtail, Giant; for pest or weed control at 125 g/ha: 125 g ai/ha; for pest or weed control at 125 g/ha / pest or weed control at 62 g/ha: read-out: Plant response rating, Foxtail, Giant; for pest or weed control at 62 g/ha: Postemergence, 62 g ai/ha
Procedure, shortened: as §2

wild oat = experiment: Test C postemergence; format: in vivo, Avena fatua; details: for pest or weed control at 16 g/ha / pest or weed control at 125 g/ha / pest or weed control at 62 g/ha: Avena fatua, post-emergence; for pest or weed control at 16 g/ha: 16 g ai/ha, 0 is no effect, 100 is complete control, read-out: Plant response rating (0 to 100), Oat, Wild; for pest or weed control at 125 g/ha: 125 g ai/ha; for pest or weed control at 125 g/ha / pest or weed control at 62 g/ha: read-out: Plant response rating, Oat, Wild; for pest or weed control at 62 g/ha: Postemergence, 62 g ai/ha
Procedure, shortened: as §2

[6] = read-out: Plant response rating, Pigweed
[7] = postemergence, visual rating, scale 0 to 100 (0 no effect, 100 complete control)
[8] = scale 0 to 100 (0 no effect, 100 complete control)
[9] = read-out: Plant response rating, Foxtail, Giant
[10] = 0 to 100 scale where 0 is no effect and 100 is complete control
[11] = 31 g ai/ha, postemergence, visual rating, scale 0 to 100 (0 no effect, 100 complete control), 13 to 15 days

Row | Structure (SMILES) | pest or weed control at 125 g/ha (pigweed [1]; [6]) [%] | pest or weed control at 16 g/ha (ragweed; postemergence) [%] | pest or weed control at 125 g/ha (ragweed; [7]) [%] | pest or weed control at 62 g/ha (ragweed; [8]) [%] | pest or weed control at 125 g/ha (giant foxtail [2]; [9]) [%] | pest or weed control at 125 g/ha (pigweed [3]; [10]) [%] | pest or weed control at 16 g/ha (chickweed; postemergence) [%] | pest or weed control at 125 g/ha (chickweed; [7]) [%] | pest or weed control at 62 g/ha (chickweed; [8]) [%] | plant injury at 16 g/ha (wheat, winter; postemergence) [%] | plant injury at 125 g/ha (wheat, winter; [7]) [%] | plant injury at 62 g/ha (wheat, winter; [8]) [%] | Soybean plant response rating (crop injury, 0-100 scale) at 16 g/ha (soybean; postemergence) [%] | Soybean plant response rating (crop injury, 0-100 scale) at 125 g/ha (soybean; [7]) [%] | Soybean plant response rating (crop injury, 0-100 scale) at 62 g/ha (soybean; [8]) [%] | pest or weed control at 125 g/ha (giant foxtail [4]; [10]) [%] | pest or weed control at 16 g/ha (velvetleaf; postemergence) [%] | pest or weed control at 125 g/ha (velvetleaf; [7]) [%] | pest or weed control at 62 g/ha (velvetleaf; [8]) [%] | pest or weed control at 16 g/ha (giant foxtail [5]; postemergence) [%] | also measured
1 | Fc1cccc(Oc2ncc(Cl)cn2)c1-n1cc(C(F)F)nn1 [Compound 141, 5-chloro-2-[2-[4-(difluoromethyl)-1H-1,2,3-triazol-1-yl]-3-fluorophenoxy]pyrimidine] | 100 | 80 | 90 | 98 | 100 | 100 | 70 | 100 | 95 | 0 | 25 | 5 | 85 | 95 | 90 | 100 | 80 | 100 | 100 | 10 | pest or weed control at 31 g/ha (pigweed [1]; 240 h, 31 g ai/ha, visual, approximately 10 days, read-out: Plant response rating, Pigweed): 100%; pest or weed control at 31 g/ha (giant foxtail [2]; 31 g ai/ha, visual, approximately 10 days, read-out: Plant response rating, Foxtail, Giant): 100%; pest or weed control at 31 g/ha (pigweed [3]; 31 g ai/ha, 0 to 100 scale, 0 no effect, 100 complete control, read-out: Plant response rating, Pigweed): 100%; pest or weed control at 31 g/ha (giant foxtail [4]; 31 g ai/ha, 0 to 100 scale, 0 no effect, 100 complete control, read-out: Plant response rating, Foxtail, Giant): 90%; pest or weed control at 125 g/ha (giant foxtail [5]; [7]): 70%; pest or weed control at 62 g/ha (giant foxtail [5]; [8]): 45%; pest or weed control at 16 g/ha (wild oat; postemergence): 0%; pest or weed control at 125 g/ha (wild oat; [7]): 30%; pest or weed control at 62 g/ha (wild oat; [8]): 10%
2 | FC(F)c1cn(-c2ccccc2Oc2ncc(Cl)cn2)nn1 [Compound 147, 5-chloro-2-[2-[4-(difluoromethyl)-1H-1,2,3-triazol-1-yl]phenoxy]pyrimidine] | 100 | 40 | 85 | 75 | 100 | 100 | 15 | 90 | 75 | 0 | 15 | 10 | 65 | 90 | 85 | 90 | 55 | 75 | 85 | 0 | pest or weed control at 500 g/ha (pigweed [1]; 240 h, 500 g ai/ha, read-out: Pigweed plant response rating): 100%; Ragweed plant response rating (ragweed; [11]): 65; pest or weed control at 500 g/ha (giant foxtail [2]; 500 g ai/ha, read-out: Foxtail, Giant plant response rating): 100%; pest or weed control at 500 g/ha (pigweed [3]; 500 g ai/ha, 0 to 100 scale where 0 is no effect and 100 is complete control, read-out: Plant response rating, Pigweed): 100%; pest or weed control at 31 g/ha (chickweed; 31 g ai/ha, postemergence, visual rating, scale 0 to 100 (0 no effect, 100 complete control), 13 to 15 days, read-out: Chickweed plant response rating): 70%; Wheat plant response rating (wheat, winter; [11]): 5; Soybean plant response rating (soybean; [11]): 65; pest or weed control at 500 g/ha (giant foxtail [4]; 500 g ai/ha, 0 to 100 scale where 0 is no effect and 100 is complete control, read-out: Plant response rating, Foxtail, Giant): 90%; Velvetleaf plant response rating (velvetleaf; [11]): 70; pest or weed control at 31 g/ha (giant foxtail [5]; 31 g ai/ha, postemergence, visual rating, scale 0 to 100 (0 no effect, 100 complete control), 13 to 15 days, read-out: Foxtail, Giant plant response rating): 0%; pest or weed control at 125 g/ha (giant foxtail [5]; [7]): 50%; pest or weed control at 62 g/ha (giant foxtail [5]; [8]): 20%; Oat, Wild plant response rating (wild oat; [11]): 0; pest or weed control at 16 g/ha (wild oat; postemergence): 0%; pest or weed control at 125 g/ha (wild oat; [7]): 5%; pest or weed control at 62 g/ha (wild oat; [8]): 0%
